Data on four molecules can be found in EP0248151A1, “Pantothenic acid as an antimutagenic agent” (SUNTORY LIMITED, priority 1983, dated 1984).

Experiment [1] concerns Salmonella typhimurium TA l00. The experiment is described as follows: Ames test (preincubation method), inactivation of mutagenicity of MNNG, without S9. The experiment is classed as cell-based. How it is done: (§1) One of the methods for determining carcinogenicity that have recently been established is the Salmonella test (also known as the Ames test) that uses the requirement for histidine as an evaluation index (Ames, B.N. et al.: Mutation Res., Vol. 3l, 347, l975). […] Therefore, the present inventors chose to use the Ames test as a means for screening various compounds to discover cancer control substances.
(§2) • (i) Method: The preincubation method shown in Sugimura & Nagao: Chemical Mutagens, Vol. 6, page 4l, l98l was used. • (ii) Microorganism: Histidine requiring Salmonella typhimurium strains TA l00 and TA 98 (hereunder TA l00 and St TA 98) were used. • (iii) Preparation of samples • a) MNNG: To MNNG samples (l µg/plate), coenzyme A was added in amounts of 0.0l µM, 0.l µM and l.0 µM/plate. • b) Benzo[a]pyrene: To benzo[a]pyrene samples (l0 µg/plate), coenzyme A was added in amounts of 0.0009, 0.009 and 0.09µM/plate. • (iv) Measuring mutagenicity
(§3) To l00 µl of each of the samples prepared in (iii) a), 500 µl of l00 mM sodium phosphate buffer (pH 7.4) and l00 µl of a culture of St TA l00 were added. To l00 µl of each of the samples prepared in (iii) b), 500 µl of S9 mix (rat liver homogenate) and l00 µl of a culture of TA 98 were added. […] After incubation at 37°C for 48 hours, the number of colonies on the plates was counted as revertants. […]

Experiment [2] concerns Salmonella typhimurium TA 98. The experiment can be described thus: Ames test (preincubation method), inactivation of mutagenicity of benzo[a]pyrene, with S9 mix (rat liver homogenate). The experiment is classed as cell-based. How it is done:
as §1, §2, §3

Experiment [3] relates to St TA l00 or St TA 98 strain. The experiment is described as follows: Ames test (preincubation method), inactivation of mutagenicity of carcinogens/mutagens by pantothenates, without S9. The experiment is classed as cell-based, Salmonella typhimurium. As for the experimental part: as §2
• (i) Method: See Example l. • (ii) Microorganism: See Example l. • (iii) Preparation of samples • a) The carcinogenic or mutagenic substances used in Example 3 and their concentrations are listed in Table 5. [formula] • b) Adding pantothenates (Na and Ca salts) Pantothenates were added to each of the carcinogenic or mutagenic samples in amounts of 0, 0.005, 0.05, and 5.0 µM/plate. • (iv) Measuring mutagenicity To l00 µl of each of the samples prepared in (iii) a), 500 µl of l00 mM sodium phosphate buffer (pH 7.4) was added. Thereafter, l00 µl of a culture of St TA l00 or St TA 98 strain was added as indicated in Table 6. [formula] The respective mixtures were shaken for 20 minutes at 37°C. After adding 2.5 ml of a soft agar solution, the mixtures were spread on minimum glucose agar plates which had been supplemented with 0.l µM/plate of histidine for causing several […] of the cells. After incubation at 37°C for 48 hours, the number of colonies on the plates was counted as revertants.

Turning to `CC(C)(COP(=O)(O)OP(=O)(O)OC[C@H]1O[C@@H](n2cnc3c(N)ncnc32)[C@H](O)[C@@H]1OP(=O)(O)O)[C@@H](O)C(=O)NCCC(=O)NCCS` [Coenzyme A, coenzyme A], the “inhibition of the mutagenicity of MNNG” value in experiment [1] (150 mols of coenzyme A added to 1 mol of MNNG) is “completely”. Further, the “inactivation of the mutagenicity of benzo[a]pyrene” value in experiment [2] (10 mols of coenzyme A added to 1 mol of benzo[a]pyrene) is given as “about 90%”.

As to `Cc1ncc(COP(=O)(O)O)c(C=O)c1O` [Pyridoxal-5′-phosphoric acid, pyridoxal-5′-phosphoric acid], the “inhibition of the mutagenicity of MNNG” value in experiment [1] (150 mols of compound added to 1 mol of MNNG) is reported as “about 50%”. The “inactivation of the mutagenicity of benzo[a]pyrene” value in experiment [2] (25 mols of compound added to 1 mol of benzo[a]pyrene) is listed as “about 80%”.

`CC(C)(CO)[C@@H](O)C(=O)NCCC(=O)[O-].[Na+]` [Sodium pantothenate, sodium pantothenate]: in experiment [3] (18 mols of sodium pantothenate added to 1 mol of methylglyoxal), the “inactivation of the mutagenicity of methylglyoxal” value was determined as 77%. Besides, in experiment [3] (2273 mols of sodium pantothenate added to 1 mol of adriamycin), the “inactivation of the mutagenicity of adriamycin” value is 59%. The “inactivation of the mutagenicity of AF-2” value in experiment [3] (6250 mols of sodium pantothenate added to 1 mol of AF-2) stood at 58%.

calcium pantothenate: the “inactivation of the mutagenicity of MNU” value in experiment [3] (6 mols of calcium pantothenate added to 1 mol of MNU) is “completely”. In addition, the “inactivation of the mutagenicity of MNNG” value in experiment [3] (73 mols of calcium pantothenate added to 1 mol of MNNG) is listed as 48%.
